The results in this text go back to article PMC11876671, “Investigating blood–brain barrier penetration and neurotoxicity of natural products for central nervous system drug development” (Scientific Reports, 2025).

Counter-ions that a name gives are not always drawn. Some results are limits rather than exact numbers.

One data set is described as follows: in vitro. The conditions noted are these: PAMPA, PAMPA-BBB Pe(10^-6 cm/sec).
As for `CC(=O)O[C@@]12CO[C@@H]1C[C@H](O)[C@@]1(C)C(=O)[C@H](O)C3=C(C)[C@@H](O)C[C@@](O)([C@@H](OC(=O)c4ccccc4)[C@H]21)C3(C)C` [10-DEACETYL BACCATIN III], the Papp is below 1 ×10⁻⁶ cm/s.

Consider `CC(=O)OCC(=O)[C@@]1(O)CC[C@H]2[C@@H]3CCC4=CC(=O)CC[C@]4(C)[C@H]3[C@@H](O)C[C@@]21C` [HYDROCORTISONE ACETATE], for which the Papp is below 1 ×10⁻⁶ cm/s.

Molecule `COc1ccc(C[C@H](N)C(=O)N[C@@H]2[C@@H](CO)OC(n3cnc4c(N(C)C)ncnc43)[C@@H]2O)cc1` (stereo partly drawn) [PUROMYCIN MONOHYDROCHLORIDE] yielded a Papp below 1 ×10⁻⁶ cm/s.

`O=C(O)c1cccc(C(=O)O)n1` [D[…]]: the Papp was below 1 ×10⁻⁶ cm/s.

With `O=c1ccc2ccc(O)cc2o1` [UMBELLIFERONE], the Papp is below 1 ×10⁻⁶ cm/s.

Staying with this data set, now noted: PAMPA, PAMPA-BBB Pe(10^-6 cm/sec), Table S3: compounds exhibiting low PAMPA-BBB permeability.
For `Oc1cc(O)cc(/C=C/c2ccc(O)c(O)c2)c1` [[…]], the Papp came to 1 ×10⁻⁶ cm/s.

For the molecule `C[C@@H]1O[C@@H](O[C@H]2[C@H](Oc3cc(O)c4c(=O)cc(-c5ccc(O)cc5)oc4c3)O[C@H](CO)[C@@H](O)[C@@H]2O)[C@H](O)[C@H](O)[C@H]1O` [RHOIFOLIN], the Papp is below 1 ×10⁻⁶ cm/s.

For `COc1ccc(-c2coc3cc(O[C@@H]4O[C@H](CO)[C@@H](O)[C@H](O)[C@H]4O)ccc3c2=O)cc1` [ONONOSIDE], the Papp is below 1 ×10⁻⁶ cm/s.

Turning to `CC1CC(C)C(=O)C1=O` (stereo not drawn), the Papp turned out to be 2.7 ×10⁻⁶ cm/s.

Take `COc1cc(-c2coc3cc(O[C@@H]4O[C@H](CO)[C@@H](O)[C@H](O)[C@H]4O)c(OC)c(O)c3c2=O)cc(O)c1OC` [IRIDIN]: the Papp was found to be 1.3 ×10⁻⁶ cm/s.

Consider `COc1c2c(cc3c1OCO3)CC[N+](C)=C2` [COTARNINIUM], for which the Papp is below 1 ×10⁻⁶ cm/s.

In the case of `CC(C)(COP(=O)(O)OP(=O)(O)OC[C@H]1O[C@@H](n2cnc3c(N)ncnc32)[C@H](O)[C@@H]1OP(=O)(O)O)[C@@H](O)C(=O)NCCC(=O)NCCS` [COENZYME A], the Papp is below 1 ×10⁻⁶ cm/s.

Molecule `O=C(/C=C/c1ccc(O)c(O)c1)c1ccc(O[C@@H]2O[C@H](CO)[C@@H](O)[C@H](O)[C@H]2O)c(O)c1O` [MAREIN¦] had a Papp of 1.6 ×10⁻⁶ cm/s.

Take `NCCC(=O)c1ccccc1N` [KYNURAMINE]: the Papp amounted to 2.4 ×10⁻⁶ cm/s.

`Nc1ncnc2c1ncn2[C@@H]1O[C@H](CO)[C@@H](O)[C@H]1O` [ADENOSINE] displayed a Papp below 1 ×10⁻⁶ cm/s.

In the case of `CC(=O)c1ccc(O[C@@H]2O[C@H](CO)[C@@H](O)[C@H](O)[C@H]2O)cc1` [PICEIN], the Papp is below 1 ×10⁻⁶ cm/s.

Consider `O=C(O)c1ccco1` [2-FURANOIC ACID], for which the Papp was below 1 ×10⁻⁶ cm/s.

The molecule `O=C(/C=C/c1ccc(O)cc1)OC[C@H]1O[C@@H](Oc2c(-c3ccc(O)cc3)oc3cc(O)cc(O)c3c2=O)[C@H](O)[C@@H](O)[C@@H]1O` [TILIROSIDE] showed a Papp below 1 ×10⁻⁶ cm/s.

With `c1cncc([C@@H]2CCCN2)c1` [NORNICOTINE], the Papp came out at 8.4 ×10⁻⁶ cm/s.

In the case of `O=C(O)/C=C/c1c[nH]cn1` [UROCANIC ACID], the Papp is below 1 ×10⁻⁶ cm/s.

Molecule `O=C(CCc1ccc(O)cc1)c1c(O)cc(O)cc1O` [PHLORETIN] had a Papp of 2.2 ×10⁻⁶ cm/s.

On to `CC1=C(CC/C(C)=C/CCC2=CC[C@H](C3=CC(=O)O[C@H]3O)O[C@H]2O)C(C)(C)CCC1` [MANOALIDE], for which the Papp is below 1 ×10⁻⁶ cm/s.

For the molecule `COC(=O)C1=CO[C@@H](O)[C@@H]2C(CO)=CC[C@H]12` [GENIPIN], the Papp is below 1 ×10⁻⁶ cm/s.

Turning to `O=C(O[C@@H]1Cc2c(O)cc(O)cc2O[C@@H]1c1ccc(O)c(O)c1)c1cc(O)c(O)c(O)c1` [EPICATECHIN GALLATE], the Papp was below 1 ×10⁻⁶ cm/s.

Take `NC(Cc1cc(O)c(O)cc1O)C(=O)O` (racemic) [2,4,5-TRIHYDROXY-DL-PHENYLALANINE]: the Papp came to 9.3 ×10⁻⁶ cm/s.

As for `C[S+](CC[C@H](N)C(=O)[O-])C[C@H]1O[C@@H](n2cnc3c(N)ncnc32)[C@H](O)[C@@H]1O` (stereo partly drawn) [S-ADENOSYLMETHIONINE], the Papp is below 1 ×10⁻⁶ cm/s.

Molecule `CC(/C=C/C=C(\C)C(=O)O[C@@H]1O[C@H](CO[C@@H]2O[C@H](CO)[C@@H](O)[C@H](O)[C@H]2O)[C@@H](O)[C@H](O)[C@H]1O)=C\C=C\C=C(C)\C=C\C=C(/C)C(=O)O[C@@H]1O[C@H](CO[C@@H]2O[C@H](CO)[C@@H](O)[C@H](O)[C@H]2O)[C@@H](O)[C@H](O)[C@H]1O` [CROCIN] yielded a Papp of 6.1 ×10⁻⁶ cm/s.

The molecule `Cc1cc(O)c(C=O)c2c1C(=O)Oc1c(C)c(O)c3c(c1O2)C(O)OC3=O` (stereo not drawn) [Norstictic acid] displayed a Papp of 2 ×10⁻⁶ cm/s.

`COc1ccc2cc1Oc1ccc(cc1)C[C@H]1c3c(cc4c(c3Oc3cc5c(cc3OC)CCN(C)[C@@H]5C2)OCO4)CCN1C` [CEPHARANTHINE] came in with a Papp below 1 ×10⁻⁶ cm/s.

Molecule `Nc1nc2c(ncn2[C@@H]2O[C@H](CO)[C@@H](O)[C@@H]2O)c(=O)[nH]1` [ARAGUANOSINE] displayed a Papp below 1 ×10⁻⁶ cm/s.

In turn, `CC(C)C1=CC2=CC[C@@H]3[C@](C)(CCC[C@@]3(C)C(=O)O)[C@H]2CC1` [SODIUM ABIETATE] yielded a Papp below 1 ×10⁻⁶ cm/s.

For `CC1=C[C@H](O)CC(C)(C)[C@H]1/C=C/C(C)=C/C=C/C(C)=C/C=C/C=C(C)/C=C/C=C(C)/C=C/C1=C(C)C[C@@H](O)CC1(C)C` [XANTHOPHYLL], the Papp was found to be 5 ×10⁻⁶ cm/s.

With `Cc1cccc2c3c(ccc12)C1=C(C(=O)C3=O)[C@@H](C)CO1` [DIHYDROTANSHINONE I], the Papp turned out to be 3.7 ×10⁻⁶ cm/s.

`CC=C1C[N+]2(C)CC[C@@]34C(=C(C=O)[C@H]1C[C@@H]32)Nc1ccccc14` (stereo partly drawn) [METVINE] had a Papp below 1 ×10⁻⁶ cm/s.

The molecule `CC(=O)OCC1=C(C(=O)O)N2C(=O)C(N)C2SC1` (stereo not drawn) [7-Aminocephalosporanic acid] had a Papp below 1 ×10⁻⁶ cm/s.

The molecule `Oc1ccc(/C=C/c2cc(O)cc(O)c2)cc1` [RESVERATROL] yielded a Papp of 1.8 ×10⁻⁶ cm/s.

`Nc1ncn([C@@H]2O[C@H](CO)[C@@H](O)[C@H]2O)c(=O)n1` [AZACITIDINE] had a Papp below 1 ×10⁻⁶ cm/s.

In turn, `COc1ccc2[nH]c3c(c2c1)CCNC3` [Pinoline] showed a Papp of 2.5 ×10⁻⁶ cm/s.

`CC(=O)O[C@@H]1C[C@H]2C(C)(C)C(=O)C=C[C@]2(C)[C@H]2CC[C@@]3(C)[C@H](c4ccoc4)OC(=O)[C@H]4O[C@]43[C@@]21C` [GEDUNIN] came in with a Papp below 1 ×10⁻⁶ cm/s.

In turn, `CC1=C(O)C(=O)OC1C` (stereo not drawn) [SOTOLONE] displayed a Papp below 1 ×10⁻⁶ cm/s.

Molecule `Cc1cccc(C(=O)O)c1O` [HYDROXYTOLUIC ACID] had a Papp below 1 ×10⁻⁶ cm/s.

In the case of `COc1ccc(C(=O)O)cc1OC` [3,4-DIMETHOXYBENZOIC ACID], the Papp is below 1 ×10⁻⁶ cm/s.

In turn, `CC1NC(C(=O)O)Cc2c1[nH]c1ccccc21` (stereo not drawn) displayed a Papp below 1 ×10⁻⁶ cm/s.

The same data set, now with this note: PAMPA, PAMPA-BBB Pe, Table S2: compounds exhibiting moderate to high PAMPA-BBB permeability.
`CC1=C(O)C(=O)CO1` [NORFURONOL] gave a Papp of 47 ×10⁻⁶ cm/s.

Consider `O=c1c2ccccc2oc2ccccc12` [XANTHONE], for which the Papp is 173 ×10⁻⁶ cm/s.

Molecule `COc1cc(C)cc(O)c1` [3-HYDROXY-5-METHOXYTOLUENE] came in with a Papp of 50 ×10⁻⁶ cm/s. This Papp lies about 3.5-fold lower than the previous one.

`C/C=C(\C)C(=O)O[C@@H]1c2c(ccc3ccc(=O)oc23)OC(C)(C)[C@@H]1OC(C)=O` [PTERYXINE] yielded an apparent permeability coefficient (Papp) of 205 ×10⁻⁶ cm/s. Against the preceding molecule, the Papp is about 4.1-fold higher.

In turn, `Cn1cnc2c(NCc3ccccc3)nc(NCCO)nc21` [OLOMOUCINE] returned a Papp of 10 ×10⁻⁶ cm/s.

The molecule `c1ccc2cnccc2c1` [ISOQUINOLINE] had a Papp of 157 ×10⁻⁶ cm/s.

For `COC1=CC(=O)O[C@@H](CCc2ccccc2)C1` [DIHYDROKAWAIN], the Papp was 82 ×10⁻⁶ cm/s.

As to `CC[C@H](C)[C@H]1O[C@]2(C=C[C@@H]1C)C[C@@H]1C[C@@H](C/C=C(\C)[C@@H](O[C@H]3C[C@H](OC)[C@@H](O[C@H]4C[C@H](OC)[C@@H](O)[C@H](C)O4)[C@H](C)O3)[C@@H](C)/C=C/C=C3\CO[C@@H]4[C@H](O)C(C)=C[C@@H](C(=O)O1)[C@]34O)O2` [ABAMECTIN B1A], the Papp turned out to be 35 ×10⁻⁶ cm/s.

For orientation: Papp means the rate of passage across a membrane or cell layer, normalised by area and donor concentration. Lower therefore signals slow passage.
